Peptide text beside a SMILES is read from it.
Legend:
[1] = system: FL-p53 binding to nspDNA (random sequence); assay: Fluorescence anisotropy titration of FL-p53 against nspDNA in the presence of peptide; type: biochemical, human
Excerpt: (§1) We prepared FL-p53, TetCT mutant, and CoreTet mutant as described previously. For FL-p53, the thermostable and cysteine-modified mutant of human p53 (C124A, C135V, C141V, W146Y, C182S, V203A, R209P, C229Y, H233Y, Y234F, N235K, Y236F, T253V, N268D, C275A, C277A, K292C) was used[11]. The TetCT mutant corresponds to residues 293−393 of human p53 with an additional N-terminal cysteine. The CoreTet mutant corresponds to residues 1–363 of FL-p53[12]. Expression and purification of the three mutants was conducted as previously described[11],[12]. Briefly, all mutants with a GST tag were expressed in Escherichia coli and were collected from a GST column after cleavage of the GST tag and further purified by using a heparin column. The DNA binding ability of all mutants was confirmed by titration experiments as described elsewhere[10]–[12]. […]
(§2) The fluorescence anisotropy of fluorescent CT peptide or DNA was measured at 25 °C using a fluorescence spectrometer (FP-6500, JASCO Co., Tokyo, Japan) with an automatic titrator and home-build autorotating polarizer. […] For p53 mutants, the concentration was calculated for the tetramer.

[2] = system: TetCT mutant of p53 binding to nspDNA (random sequence); assay: Fluorescence anisotropy titration of TetCT mutant against nspDNA in the presence of DP6; type: biochemical, human; details: at more than 150 μM DP6; 100 mM KCl
Experimental: (§3) The solution used here included 100 mM KCl to mimic physiological conditions.
as §1, §2

[3] = target: T1, CT peptide (residues 367–393 of human p53) (Homo sapiens, UniProt P04637); assay: Fluorescence anisotropy titration of peptides against FAM-labeled CT peptide of p53; type: binding; details: absence of salt; versus Wmot2, Cul7, WS100B peptides
T1 construct: CT peptide (residues 367–393 of human p53) labeled with FAM at the N-terminus; purchased Toray Research Center Inc., Tokyo, Japan; host or cells: chemical synthesis
Experimental: To test how well our method worked, we titrated the designed peptides against the CT peptide (residues 367–393) labeled with a fluorescent dye, FAM, using a fluorometer with fluorescence anisotropy[11]
The fluorescence anisotropy of fluorescent CT peptide or DNA was measured at 25 °C using a fluorescence spectrometer (FP-6500, JASCO Co., Tokyo, Japan) with an automatic titrator and home-build autorotating polarizer[11]. […] The titration curves were fitted by the following equations:1 robs=rA(cA−cAB)/cA+rABcAB/cA, 2 cAB=(cA+cB+KD)−(cA+cB+KD)^2−4cAcB/2, where robs, rA, rAB, KD, cA, and cB are the observed anisotropy, anisotropy of free molecule A, anisotropy of the complex between molecules A and B, dissociation constant, total concentration of molecule A and total concentration of molecule B, respectively. For p53 mutants, the concentration was calculated for the tetramer.

[4] = system: FL-p53 binding to spDNA (p21); assay: Fluorescence anisotropy titration of FL-p53 against spDNA in the presence of peptide; type: biochemical, human; details: saturated at 300 μM DP6
Excerpt: as §1, §2

[5] = target: T2, FL-p53 labeled with Atto532 sliding along nspDNA (λDNA array) (Homo sapiens, UniProt P04637, C124A/C135V/C141V/C182S/C229Y/C275A/C277A/H233Y/K292C/N235K/N268D/R209P/T253V/V203A/W146Y/Y234F/Y236F); assay: Single-molecule fluorescence measurement of 1D sliding of FL-p53 along DNA (DNA garden); type: biochemical; details: displacement analysis, time interval 165 ms; for Fraction of fast sliding mode of FL-p53: 100 mM KCl, 2 mM MgCl2, pH 7.9
T2 construct: we prepared three p53 constructs: full-length p53 (FL-p53); GST (cleaved yes); made in house; host or cells: Escherichia coli
Experimental: The 1D sliding of FL-p53 labeled with Atto532 along DNA was measured by a custom-built TIRF microscope, as described previously[11],[39]. The λDNA array tethered on the coverslip of the flow cell was constructed using microcontact printing as described previously[39]. FL-p53 was labeled with Atto532 as described elsewhere[11]. FL-p53 with Atto532 at 2–4 nM was introduced into the flow cell with the DNA array by a syringe pump and measured at a flow rate of 500 μL/min, corresponding to 90% extension of λDNA. […] The experiments were conducted immediately after the dilution of FL-p53 from the stock solution at more than 10 μM and finished within 50 min to prevent the dissociation of the tetramer[40]. The analysis was described previously[11]. For distribution analysis, the following fitting equation was used:3 P(δx)=∑i=12Ai/4πDiδtexp(−(δx+viδt)^2/4Diδt), where P(δx), δt, δx, Ai, vi, and Di are the occurrence of δx, time interval, displacement in the time interval, amplitude of the ith mode, drift velocity of the ith mode, and diffusion coefficient of the ith mode, respectively.

[6] = system: CoreTet mutant of p53 binding to spDNA (p21); assay: Fluorescence anisotropy titration of CoreTet mutant against spDNA in the presence of DP6; type: biochemical, human; details: 600 μM DP6
Experimental: as §3, §1, §2

Row | effect on the affinity of FL-p53 for DNA ([1]; DP5, nspDNA and spDNA (Fig. S7, Table S2)) | SMILES | anisotropy change for nspDNA on titration of TetCT mutant [2] | increase of the KD of FL-p53 for nspDNA ([1]; at 600 μM than at 0 μM DP6) [fold] | KD of DP6 with respect to the CT domain, times stronger than the KD of the natural peptides [3] | increase of the KD of FL-p53 for spDNA [4] [fold] | Fraction of slow sliding mode of FL-p53 ([5]; [DP6] 300) [%] | Fraction of fast sliding mode of FL-p53 ([5]; [DP6] 300) [%] | Fraction of slow sliding mode of FL-p53 ([5]; [DP6] 600) [%] | Fraction of fast sliding mode of FL-p53 ([5]; [DP6] 600) [%] | effect on binding of the CoreTet mutant to spDNA [6]
1 | did not affect the affinity of FL-p53 | NC(=O)C[C@H](NC(=O)[C@H](CC(N)=O)NC(=O)[C@H](CC(=O)O)NC(=O)[C@H](CCC(=O)O)NC(=O)[C@H](CCC(=O)O)NC(=O)[C@H](CCC(=O)O)NC(=O)[C@@H](N)CCC(=O)O)C(=O)N[C@@H](CC(=O)O)C(=O)N[C@@H](CC(=O)O)C(=O)N[C@@H](CC(=O)O)C(=O)N[C@@H](CCC(=O)O)C(=O)N[C@@H](CCC(=O)O)C(=O)N[C@@H](CCC(=O)O)C(=O)O [DP5] (H-EEEEDNNDDDEEE-OH) | – | – | – | – | – | – | – | – | –
2 | – | NC(=O)C[C@H](NC(=O)[C@H](CC(N)=O)NC(=O)[C@H](CC(=O)O)NC(=O)[C@H](CCC(=O)O)NC(=O)[C@H](CCC(=O)O)NC(=O)[C@H](CCC(=O)O)NC(=O)[C@H](CCC(=O)O)NC(=O)[C@@H](N)CCC(=O)O)C(=O)N[C@@H](CC(=O)O)C(=O)N[C@@H](CC(=O)O)C(=O)N[C@@H](CC(=O)O)C(=O)N[C@@H](CCC(=O)O)C(=O)N[C@@H](CCC(=O)O)C(=O)N[C@@H](CCC(=O)O)C(=O)N[C@@H](Cc1c[nH]c2ccccc12)C(=O)N[C@@H](Cc1ccccc1)C(=O)O [DP6] | no significant change in anisotropy | 7 | at least 12 times | 3 | 54 ± 1 | 46 ± 2 | 31 ± 2 | 69 ± 1 | did not weaken the binding

— PMC6599006, “Rational design using sequence information only produces a peptide that binds to the intrinsically disordered region of p53” (Scientific Reports, 2019)
